# Results: US20230056888A1, “COMPOSITIONS COMPRISING CYANIDIN-3-GALACTOSIDE FOR USE AS VASORELAXANT” (Evonik Operations GmbH, priority 2019, published 2023)
# Entries after “also recorded” stand apart in the source; their conditions may differ.
# Assays:
# [1] = tested on: NADPH oxidase; test: NADPH oxidase activity (lucigenin-enhanced chemiluminescence) in mesenteric arteries after Angiotensin II; format: cell-based, mice; settings: for NADPH oxidase (NOX) activity after stimulation with Angiotensin II: single anthocyanins 50 μg/mL, smaller reduction than Healthberry 865®
# Method: Vessels were homogenized in a buffer containing protease inhibitors (mmol/L: 20 monobasic potassium phosphate, 1 EGTA, 0.01 aprotinin, 0.01 leupeptin, 0.01 pepstatin, 0.5 phenylmethylsulfonyl fluoride, pH 7.0). Protein content was measured in an aliquot of the homogenate by Bradford method. In some experiments, cells and vessels were pre-incubated with pharmacological inhibitors before measurements. The reaction was started by the addition of NADPH (0.1 mmol/l) and lucigenin (5 μmol/l) to each well. The chemiluminescence was measured using Tecan Infinite Pro M200 multimode microplate at 37° C.
# (§1) Vessels were pre-treated with single anthocyanins (50 μg/mL) for 1 hours and then stimulated with Angiotensin II for 15 minutes prior to the acquisition. […] Data are expressed as increase of chemiluminescence per minute.
# (§2) Data are expressed as increase of chemiluminescence per minute. Statistical analysis were performed using One-way ANOVA followed Bonferroni post-hoc test.
# [2] = tested on: mice mesenteric arteries; test: Vascular reactivity of phenylephrine-precontracted mice mesenteric arteries, alone or with selective inhibitors; format: cell-based; settings: for direct vasorelaxant action of single anthocyanin, compared with Healthberry 865®: increasing doses 1-100 μg/mL; for vasorelaxation reached by single anthocyanin: dose-response curves 1-100 μg/mL; for vasorelaxant effect in presence of Akt inhibitor: Akt inh 1 μM; for vasorelaxant effect in presence of Akt inhibitor / vasorelaxant effect in presence of PI3K inhibitor LY294002: 1 h; for vasorelaxant effect in presence of L-NAME (eNOS inhibitor): L-NAME 300 μM, 30 min pre-treatment; for vasorelaxant effect in presence of PI3K inhibitor LY294002: LY294002 10 μM
# [3] = tested on: reactive oxygen species (ROS) in mouse mesenteric arteries; test: Total ROS production (DHE / DHR123) in mesenteric arteries stimulated with Angiotensin II; format: cell-based; settings: 50 μg/mL, 1 hour pre-treatment, then Angiotensin II 15 minutes, confirmed by DHR123
# Method: Dihydroethidium (DHE, Life Technologies) was used to evaluate production of reactive oxygen species (ROS) in mouse mesenteric arteries, as previously described. Briefly, vessels were incubated with 5 μM of DHE for 20 min and subsequently observed under a fluorescence microscope (Zeiss). Images were acquired by a digital camera system (Olympus Soft Imaging Solutions). […] After treatment, vessels were incubated with Krebs solution containing 5 μM DHR123 for 30 min at 37° C., and then washed two times with PBS prior to fluorescence measurement using a fluorescence microplate reader (TECAN infinite 200 Pro).
# as §1, §2
# [4] = tested on: nitric oxide production in mice mesenteric arteries; test: Evaluation of NO production by DAF-FM in mesenteric arteries; format: cell-based; settings: HB 50 μg/mL or 100 μg/mL; single anthocyanins 50 μg/mL; comparator acetylcholine 10^-6 M
# Method: Production of NO was assessed as previously described (Carrizzo et al. 2016). Healthberry 865®-865 (100 μg/mL) or acetylcholine (10^-6 M) was administered to the mesenteric artery in the last 30 min of 4-amino-5-methylamino-2,7,-difluorofluorescein diacetate (DAF-FM) incubation, alone and after […] exposure to L-NAME (300 μmol/L, 30 min). Mesenteric segments were cut in 5-μm thick sections, observed under a fluorescence microscope, subsequently counterstained with haematoxylin and eosin and observed under a light microscope.
# FIG. 2 D) show representative high-power micrographs of 10 μm sections of mice mesenteric arteries loaded for 2 h with […] (DAF-FM) reveal nitric oxide production after treatment with acetylcholine (Ach 10^-6 M) or HB (50 μg/mL) and after 30 min of pretreatment with L-NAME (300 μmol/L), counterstained with haematoxylin and eosin (HE). Scale bar, 50 μm. E) Semiquantitative analyses of immunoblots of mice mesenteric arteries treated with HB (100 μg/mL) alone, or HB plus Akt inhibitor or LY294002, columns are the mean±SEM of three independent experiments. Statistical analyses were performed using two-way ANOVA followed Bonferroni post-hoc test. *p<0.05; **p<0.01, ***p<0.001.
# FIG. 7A-D show vascular response of phenylephrine-precontracted mice mesenteric arteries to increasing doses of a combination of anthocyanins mixed with a ratio 1:1. […]
NADPH oxidase (NOX) activity after stimulation with Angiotensin II [1],Molecule,"direct vasorelaxant action of single anthocyanin, compared with Healthberry 865® [2]",Angiotensin II-induced ROS formation [3],other results
able to reduce NOX activity,"OC[C@H]1O[C@@H](Oc2cc3c(O)cc(O)cc3[o+]c2-c2cc(O)c(O)c(O)c2)[C@H](O)[C@@H](O)[C@@H]1O [DP3-glu, Delphinidin-3-glucoside]",none of the single anthocyanins was able to evoke a dose-dependent vasorelaxation comparable,able to reproduce the antioxidant action,
able to reduce NOX activity,Peonidin-3-galactoside [PEO3-gal],none of the single anthocyanins was able to evoke a dose-dependent vasorelaxation comparable,able to reproduce the antioxidant action,
,"Oc1cc(O)c2cc(O[C@H]3OC[C@H](O)[C@H](O)[C@H]3O)c(-c3cc(O)c(O)c(O)c3)[o+]c2c1 [DP3-ara, Delphinidin-3-arabinoside]",none of the single anthocyanins was able to evoke a dose-dependent vasorelaxation comparable; also recorded: vasorelaxant effects,,
able to reduce NOX activity,"C[C@@H]1O[C@@H](OC[C@H]2O[C@@H](Oc3cc4c(O)cc(O)cc4[o+]c3-c3ccc(O)c(O)c3)[C@H](O)[C@@H](O)[C@@H]2O)[C@H](O)[C@H](O)[C@H]1O [C3-rut, Cyanidin-3-rutinoside]",none of the single anthocyanins was able to evoke a dose-dependent vasorelaxation comparable; also recorded: vasorelaxant effects,able to reproduce the antioxidant action,vasorelaxation reached by single anthocyanin [2]: ~36.5%
able to reduce NOX activity,"OC[C@H]1O[C@@H](Oc2cc3c(O)cc(O)cc3[o+]c2-c2ccc(O)c(O)c2)[C@H](O)[C@@H](O)[C@@H]1O [C3-glu, Cyanidin-3-glucoside]",none of the single anthocyanins was able to evoke a dose-dependent vasorelaxation comparable,able to reproduce the antioxidant action,rank of NOX activity reduction among single anthocyanins relative to Healthberry 865® [1]: most powerful anthocyanins
,"OC[C@H]1O[C@@H](Oc2cc3c(O)cc(O)cc3[o+]c2-c2cc(O)c(O)c(O)c2)[C@H](O)[C@@H](O)[C@H]1O [DP3-gal, Delphinidin-3-galactoside]",none of the single anthocyanins was able to evoke a dose-dependent vasorelaxation comparable; also recorded: vasorelaxant effects,,vasorelaxation reached by single anthocyanin [2]: about 32.5%
,"OC[C@H]1O[C@@H](Oc2cc3c(O)cc(O)cc3[o+]c2-c2cc(O)c(O)c(O)c2)[C@H](O[C@@H]2OC[C@@H](O)[C@H](O)[C@H]2O)[C@@H](O)[C@@H]1O [DP3-samb, Delphinidin-3-sambubioside]",able to reproduce the direct vasorelaxant effect,,vasorelaxant effect in presence of Dorsomorphin (AMPK inhibitor) [2]: inhibited; vasorelaxant effect in presence of Akt inhibitor [2]: did not influence; vasorelaxant effect in presence of L-NAME (eNOS inhibitor) [2]: significantly reduced; vasorelaxant effect in presence of PI3K inhibitor LY294002 [2]: inhibited; nitric oxide production (DAF-FM fluorescence) [4]: significant increase of nitric oxide production
,"OC[C@H]1OC(Oc2cc3c(O)cc(O)cc3[o+]c2-c2ccc(O)c(O)c2)[C@H](O)C(O)C1O (stereo partly shown) [C3-gal, Cyanidin-3-galactoside]",able to reproduce the direct vasorelaxant effect,,vasorelaxant effect in presence of Dorsomorphin (AMPK inhibitor) [2]: completely lost its vasorelaxant capability; vasorelaxant effect in presence of Akt inhibitor [2]: did not inhibit; vasorelaxant effect in presence of L-NAME (eNOS inhibitor) [2]: significantly reduced; vasorelaxant effect in presence of PI3K inhibitor LY294002 [2]: did not inhibit; nitric oxide production (DAF-FM fluorescence) [4]: significant increase of nitric oxide production
,"COc1cc(-c2[o+]c3cc(O)cc(O)c3cc2O[C@@H]2O[C@H](CO)[C@@H](O)[C@H](O)[C@H]2O)cc(O)c1O [PT3-glu, Petunidin-3-glucoside]",none of the single anthocyanins was able to evoke a dose-dependent vasorelaxation comparable,,

Molecule,NADPH oxidase (NOX) activity after stimulation with Angiotensin II [1],"direct vasorelaxant action of single anthocyanin, compared with Healthberry 865® [2]",Angiotensin II-induced ROS formation [3],other results
"COc1cc(-c2[o+]c3cc(O)cc(O)c3cc2O[C@@H]2O[C@H](CO)[C@@H](O)[C@H](O)[C@H]2O)cc(OC)c1O [MAL3-glu, Malvidin-3-glucoside]",able to reduce NOX activity,none of the single anthocyanins was able to evoke a dose-dependent vasorelaxation comparable,able to reproduce the antioxidant action,rank of NOX activity reduction among single anthocyanins relative to Healthberry 865® [1]: most powerful anthocyanins
"COc1cc(-c2[o+]c3cc(O)cc(O)c3cc2O[C@@H]2O[C@H](CO)[C@H](O)[C@H](O)[C@H]2O)cc(OC)c1O [MAL3-gal, Malvidin-3-galactoside]",able to reduce NOX activity,none of the single anthocyanins was able to evoke a dose-dependent vasorelaxation comparable,able to reproduce the antioxidant action,
